One data set deals with FGF21. The data set is described as follows: FGF21 mRNA expression in 266-6 murine acinar cells (RT-qPCR). The following applies: 266-6 cells. The data set is classed as cell-based. Here is the method:
Using one of these models, RT-qPCR analysis of FFG21 mRNA expression was performed in 266-6 murine acinar cells after 6 hours treatment of DMSO/different doses of SR1078 (commercial ROR-α agonist). The statistical significance was calculated relative to DMSO and was determined by Student's t test (two-tailed). Values in graphs are mean±SD. *p<0.05, **p<0.01, ***p<0.001, ****p<0.0001.

In data set [1] the test system is high-fat-fed C57BL/6 mice. The data set is described as follows: High-fat-diet-fed C57BL/6 mice treated with Compound 1 and/or antagomiR-122. The note with it: 50% HFD; Compound 1 7.5 mg/kg i.p. twice a week, antagomiR once a week, 3 weeks. The class given is in vivo. How it is done:
C57BL/6 mice were fed a 50% high fat diet (HFD) for four weeks. The control cohort received three hydrodynamic tail vein injections of a 5 μg antagomiR-control and six i.p injections of saline over three weeks. A second cohort was hydrodynamic tail vein injected with 5 μg antagomiR-122 (the reverse complement that inhibits activity of miR-122) three times and i.p injections of saline six times over three weeks. A third cohort was injected i.p. with Compound 1 (7.5 mg/kg) twice a week plus antagomiR-control once a week over the course of 3 weeks. The final cohort was injected i.p. with Compound 1 (7.5 mg/kg) twice a week plus antagomiR-122 injections once a week over the course of 3 weeks.
Male C57BL/6J mice, 7 to 8 weeks old, were housed randomly in standard cages and were fed a HFD, or atherogenic diet (consisting 1% Chol and 0.5% cholic acid, see also Table 6). All mice had free access to water during the experimental period. During the feeding period body weight was monitored every 3 days. In the HFD experiment, after 4 or 6 weeks, the resultant obese mice were treated with antagomiR-122 (5 μg/mouse once a week for 3 weeks), or i.p. injected with Compound 1 (RORα agonist, 7.5 mg/kg twice a week for 3 weeks; or 15 mg/kg 3 times a week for 3 weeks). The obese control (HFD) group was administered only saline with DMSO and antagomiR-control. After 3 weeks of treatment mice were sacrificed and livers were taken for RNA-seq analysis. Livers, white adipose, and skeletal muscle tissues were frozen in liquid nitrogen or in optimum cutting temperature embedded frozen blocks, for further RNA and histologic analysis. In the atherogenic diet experiment mice were treated with 15 mg/kg Compound 1 after 3 weeks with the diet. After 3.5 weeks of treatment, mice were sacrificed, and the livers were frozen in liquid nitrogen or in optimum cutting temperature embedded frozen blocks. Plasma was collected from atherogenic diet-fed mice and saved in −20° C. for ALT and AST analysis using the Reflotron® Analyzer and test-strips (Roche).
In the HFD experiment, after 4 or 6 weeks, the resultant obese mice were treated with antagoMIR122 (5 μg/mouse once a week for 3 weeks), or i.p. injected with Compound 1 (RORα agonist, 7.5 mg/kg twice a week for 3 weeks; or 15 mg/kg 3 times a week for 3 weeks). The obese control (HFD) group was administered only saline with DMSO and antagomiR-control.
Mice were fed with a 50% HFD and after 4 weeks, when fatty liver was already established, they were treated with Compound 1, antagoMIR122 or both compounds together for an additional 3 weeks. […] The weighing of mice began at week 3, one week before treatments were initiated. […] The liver weight of the mice was in accordance with their body weight.

Another data set concerns MIR122. The data set is described as follows: AntagoMIR122 treatment of chow or HFD fed mice. The class given is in vivo, C57BL/6 mice. The following applies: for MIR122 levels in plasma, liver and white adipose tissue: hydrodynamic tail vein injection, 5 μg/mouse once a week. How it is done: C57BL/6 mice, 7 to 8 weeks old, were fed chow or 50% HFD, consisting of 50% Fat, 20% Sucrose, 10% Fructose, 1.25% Chol) (Envigo, TD.150235) for 4 weeks. In experiments of miR-122 repression by antagomiR, mice were hydrodynamic tail vain injected with antagomiR-122 or antagomiR-control (5 μg/mouse in 1.5 mL saline) once a week for 4 weeks and were still fed HFD or chow diet. After 4 weeks of injections mice were sacrificed and the livers, white adipose, and skeletal muscle tissues were frozen in liquid nitrogen or in optimum cutting temperature embedded frozen blocks, for further RNA and histologic analysis. AntagomiRs were obtained from Sigma-Aldrich (St Louis, MO); see Table 5.
C57BL/6 mice, 7 to 8 weeks old, were fed chow or 50% HFD, consisting of 50% Fat, 20% Sucrose, 10% Fructose, 1.25% Cholesterol) (Envigo, TD.150235) for 4 weeks. In experiments of MIR122 repression by antagomiR, mice were hydrodynamic tail vain injected with antagoMIR122 or antagomiR-control (5 μg/mouse in 1.5 mL saline) once a week for 3 weeks and were still fed HFD or chow diet. After 3 weeks of injections mice were sacrificed and the livers, gonadal white adipose, and skeletal muscle tissues were frozen in liquid nitrogen or in optimum cutting temperature embedded frozen blocks, for further RNA and histologic analysis. AntagomiRs were obtained from Sigma-Aldrich (St Louis, MO).

In data set [2] the test system is peripheral and the central benzodiazepine receptors. The following applies: prediction later experimentally proven; cited from earlier work.
The target of a further data set is T1, RORα (Homo sapiens, UniProt P35398).
T1 construct: endogenous in cells; host or cells: Huh-7 (Huh7) human hepatocellular carcinoma cells
T1 sequence (P35398 1-523): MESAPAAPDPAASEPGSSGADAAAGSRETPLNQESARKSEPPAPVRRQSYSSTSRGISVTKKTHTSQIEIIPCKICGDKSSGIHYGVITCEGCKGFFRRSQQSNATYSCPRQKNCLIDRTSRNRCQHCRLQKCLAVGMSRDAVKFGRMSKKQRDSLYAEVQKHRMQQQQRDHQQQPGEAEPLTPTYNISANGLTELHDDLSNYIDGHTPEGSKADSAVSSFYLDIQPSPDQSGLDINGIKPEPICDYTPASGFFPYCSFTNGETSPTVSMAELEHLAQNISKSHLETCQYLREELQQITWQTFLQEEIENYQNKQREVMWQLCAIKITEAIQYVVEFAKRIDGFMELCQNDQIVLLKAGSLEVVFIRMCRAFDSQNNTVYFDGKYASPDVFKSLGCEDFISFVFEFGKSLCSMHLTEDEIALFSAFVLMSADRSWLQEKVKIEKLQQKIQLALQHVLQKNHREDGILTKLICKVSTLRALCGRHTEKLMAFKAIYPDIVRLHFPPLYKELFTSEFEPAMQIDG
The experiment in a line: RORα activity by luciferase reporter (miR-122 promoter) in Huh-7 cells. The data set is classed as cell-based. Also noted: MIR122 promoter activity compared with SR1078: dose or concentration left out as unconfirmed. The note with it: wild type and mutant RORA. Here is the method:
Huh-7 cells were transfected with a luciferase reporter plasmid containing the miR-122 promoter (extends to −900 from the transcription start site) with intact wild-type (WT) RORα response element (RORE) or mutated RORE (mut). The cells were treated with Compound 1 one day (24 hours) post-transfection at the indicated concentrations. Luciferase expression was measured after 24 hours of treatment and normalized to Renilla Luciferase activity expressed from a co-transfected pRL plasmid. The pRL Vector, which provides constitutive expression of Renilla luciferase, was used in combination with a firefly luciferase vector to co-transfect cells. Expression of Renilla luciferase provides an internal control value to which expression of the experimental firefly luciferase reporter gene may be normalized.
Luciferase assay. For Luciferase assays, cells grown in 24 well plates were co-transfected with a luciferase reporter plasmid (50 ng) and 1 ng of Renilla Luciferase vector (PRL, Promega) using the TransIT-LT 1 (Mirus) transfection reagent (MIR 2300, Madison, WI). Firefly and Renilla luciferase activity was assessed using the Dual Luciferase Reporter Assay system (Promega). Readings were taken in triplicates on a Mithras LB 940 Luminometer (Berthold Technologies). […]
Following transfections, the cells were lysed with passive lysis buffer (Cat #E1941; Promega), shaking for 20 min at RT and transferred into appropriate 96-well plate. Firefly and Renilla luciferase activity was assessed using the Dual Luciferase Reporter Assay system (Cat #E1910; Promega) on a luminometer Mithras 2000 (Centro XZ, LB960, Berthold Technologies, Bad Wildbad, Germany). […] Readings were taken in triplicate.
Following transfections, the cells were lysed with passive lysis buffer (Cat #E1941; Promega), shaking for 20 min at room temperature (RT) and transferred into the appropriate 96-well plate. Firefly and Renilla luciferase activity was assessed using the Dual Luciferase Reporter Assay system (Cat #E1910; Promega) on a luminometer Mithras 2000 (Centro XZ, LB960, Berthold Technologies, Bad Wildbad, Germany). […] Readings were taken in triplicates. […]
After transfections, the cells were lysed with passive lysis buffer (catalog no. E1941, Promega), shaken for 20 minutes at room temperature, and transferred into the appropriate 96-well plate. Firefly and Renilla luciferase activity was assessed using the Dual Luciferase Reporter Assay system (catalog no. E1910, Promega) on a luminometer Mithras 2000 (Centro XZ, LB960; Berthold Technologies, Bad Wildbad, Germany). […] Readings were taken in triplicate.
For orientation: In a reporter assay the amount or activity of a reporter protein is the signal.

Here are results for four compounds from patent US20250339445A1, “Modulators of Orphan Nuclear Receptors for Treating Pancreatitis, Glioblastoma, Sarcopenia and Stroke” (Emory University, priority 2020, published 2025).

In the case of `O=C(Nc1ccc(C(O)(C(F)(F)F)C(F)(F)F)cc1)c1ccc(C(F)(F)F)cc1` [SR1078], the “Fgf21 expression in acinar cells” value with FGF21 (6 hours treatment) is recorded as “increases Fgf21 expression”. Also, in the data set with FGF21 (6 hours, effect decreasing at 20 and 40 μM), the “Concentration of optimal effect on Fgf21 expression” value is recorded as 10 micromolar (μM).
In the case of “antagomiR-122: MIR122 antagonist; 2′-O Me-modified, phosphorothioate, cholesterol-linked reverse complement that inhibits activity of miR-122 (antisense ACAAACACCAUUGUCACACUCCA; all 2'-O-methyl, backbone not given here; phosphorothioate linkages and cholesterol conjugate, further chemistry not fully specified)”, the Body weight entry in data set [1] was “highest increase in weight”. Further, the Mice weight result in the data set with MIR122 (HFD mice) is reported as “increased significantly”. Moreover, in the data set on MIR122 (HFD-fed mice), the “Liver fat droplets, total TG liver content and muscle TG levels” value is “increase”. The “MIR122 levels in plasma, liver and white adipose tissue” value in the data set on MIR122 is reported as “significantly reduced”; in the data set on MIR122 (listed as antagoMIR122), “reduced significantly”.
On to `CC(C)=CCC/C(C)=C/CC/C(C)=C/CN1C(=O)c2cccc(O)c2Nc2c(O)cc(O)cc21` [Diazepinomicin], for which, in data set [2], the “Predicted CNS activity (Gourdeau et al. 2008)” value is “predicted to be CNS inactive”.
In the case of `O=C1Nc2cc(C(=O)N3CCC(Cc4ccccc4)CC3)ccc2Nc2ccccc21` [Compound 68], the “MIR122 promoter activity compared with SR1078” value at RORα was “more potent than the commercial synthetic RORA agonist SR1078”.
